Source: patent US6369079B1 (Sepracor, Inc., priority 1998, dated 2002)

Assays:
[1] = co-administration with ketoconazole; cited from earlier work
[2] = cited from earlier work
[3] = target: T1, cloned human serotonin 5-HT1A receptor (Homo sapiens, UniProt P08908); test: R-SAT 5-HT1A receptor activity (agonist/antagonist); type: cell-based; conditions: antagonist activity against 2 μM 5-HT, NIH 3T3 cells, read-out: Calculated IC50 at 5-HT1A receptor
T1 construct: host or cells: NIH 3T3 cells
T1 sequence (P08908 1-422): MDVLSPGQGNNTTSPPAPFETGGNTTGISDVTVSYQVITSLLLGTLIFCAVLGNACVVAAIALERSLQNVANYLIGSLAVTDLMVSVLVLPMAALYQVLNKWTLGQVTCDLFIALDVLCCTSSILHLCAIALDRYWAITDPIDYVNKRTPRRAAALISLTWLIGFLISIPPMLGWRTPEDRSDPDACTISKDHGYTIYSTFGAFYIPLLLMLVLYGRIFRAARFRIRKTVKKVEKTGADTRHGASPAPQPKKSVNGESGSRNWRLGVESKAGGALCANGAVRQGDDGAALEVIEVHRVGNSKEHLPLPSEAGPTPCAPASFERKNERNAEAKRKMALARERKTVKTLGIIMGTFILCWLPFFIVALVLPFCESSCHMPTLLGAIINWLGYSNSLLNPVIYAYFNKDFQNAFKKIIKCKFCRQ
Description: The assay involves co-expression of a marker enzyme, β-galactosidase, with the serotonin receptor of interest. Ligands stimulate proliferation of cells that express the receptor and, therefore, the marker. Ligand-induced effects can be determined by assay of the marker.
NIH 3T3 cells are incubated, plated, and then transfected using human 5-HT1A serotonin receptors, pSV-β-galactosidase, and salmon sperm DNA. The medium is changed one day later, and after 2 days, aliquots of the trypsinized cells are placed in wells of a 96 well plate. After five days in culture in the presence of the ligands, the levels of β-galactosidase are measured. The cells are then rinsed and incubated with the substrate, […] β-D-galactopyranoside.
Data from antagonist inhibition of the compounds are fit to the equation:
Response Max Response +(Min Response)/1+(Ligand Conc/[…])

[4] = target: T2, 5-HT3 receptor subtypes derived from N1E-115 cells (Mus musculus, UniProt P23979); test: 5-HT3 receptor radioligand binding (Cerep); conditions: IC50 for binding to 5-HT3 sites, inhibition of specific radioligand binding
T2 construct: host or cells: N1E-115 cells
T2 sequence (P23979 24-489): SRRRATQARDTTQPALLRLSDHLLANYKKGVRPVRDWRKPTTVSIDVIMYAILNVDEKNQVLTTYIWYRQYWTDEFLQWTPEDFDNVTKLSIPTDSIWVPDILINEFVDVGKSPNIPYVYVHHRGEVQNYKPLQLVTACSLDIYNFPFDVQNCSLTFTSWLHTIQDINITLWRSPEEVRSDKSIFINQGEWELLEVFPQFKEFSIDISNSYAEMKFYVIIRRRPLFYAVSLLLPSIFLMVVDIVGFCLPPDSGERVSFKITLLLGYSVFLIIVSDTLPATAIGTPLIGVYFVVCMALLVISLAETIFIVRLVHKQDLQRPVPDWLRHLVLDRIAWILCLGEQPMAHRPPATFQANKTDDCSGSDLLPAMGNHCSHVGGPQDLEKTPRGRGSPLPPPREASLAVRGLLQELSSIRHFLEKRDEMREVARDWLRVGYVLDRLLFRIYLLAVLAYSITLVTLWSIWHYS
Description: Following incubation with the appropriate ligands, the preparations are rapidly filtered under vacuum through GF/B glass fiber filters and washed with ice-cold buffer using a Brandel or Packard cell harvester.
(§1) Specific radioligand binding to the receptor is defined as the difference between total binding and nonspecific binding determined in the presence of an excess of unlabeled ligand. Results are expressed as a percent inhibition of specific binding obtained in the presence of the compounds.

[5] = target: T3, 5-HT4 receptor subtypes derived from guinea-pig striata (Cavia porcellus, UniProt O70528); test: 5-HT4 receptor radioligand binding (Cerep); conditions: IC50 for binding to 5-HT4 sites, inhibition of specific radioligand binding
T3 construct: tissue Cerep, Celle l'Evescault, France; host or cells: guinea-pig striata
Description: Following incubation with the appropriate ligands, the preparations are raidly filtered under vacuum through GF/B glass fiber filters and washed with ice-cold buffer using a Brandel or Packard cell harvester.
as §1

T3 sequence (O70528 whole entry): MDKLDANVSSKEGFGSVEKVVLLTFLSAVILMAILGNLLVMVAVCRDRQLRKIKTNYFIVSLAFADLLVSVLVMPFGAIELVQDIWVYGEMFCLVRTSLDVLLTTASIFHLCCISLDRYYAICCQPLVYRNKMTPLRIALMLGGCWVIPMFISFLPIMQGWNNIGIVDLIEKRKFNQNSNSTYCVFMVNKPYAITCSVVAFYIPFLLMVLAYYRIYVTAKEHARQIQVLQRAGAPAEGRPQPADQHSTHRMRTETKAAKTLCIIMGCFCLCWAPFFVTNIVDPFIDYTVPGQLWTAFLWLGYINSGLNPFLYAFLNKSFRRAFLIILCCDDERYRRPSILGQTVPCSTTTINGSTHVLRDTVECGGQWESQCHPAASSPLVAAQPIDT

Compound	Increase of steady-state plasma levels [1] [fold]	Absorption after oral administration ([2]; humans)	Fraction of dose metabolized ([2]; humans, mainly oxidative N-dealkylation or aromatic hydroxylation)	Bioavailability ([2]; oral administration to humans, rapid first-pass metabolism in the liver)	IC50 [3] [nM]	IC50 [4] [nM]	IC50 [5] [nM]
COc1cc(N)c(Cl)cc1C(=O)NC1CCN(CCCOc2ccc(F)cc2)CC1OC (racemic) [(±) Cisapride, cis-4-amino-5-chloro-N-[1-[3-(4-fluorophenoxy)propyl]-3-methoxy-4-piperidinyl]-2-methoxybenamide]	8	almost completely absorbed	More than 90%	40-50%	–	–	–
COc1cc(N)c(Cl)cc1C(=O)NC1CCNCC1OC (racemic) [(±) Norcisapride, 4-amino-5-chloro-N-(3-methoxy-4-piperidinyl)-2-methoxybenzamide]	–	–	–	–	7480	8.2	686
COc1cc(N)c(Cl)cc1C(=O)NC1CCNCC1OC (single isomer, unassigned; (+)) [(+) Norcisapride, 4-amino-5-chloro-N-(3-methoxy-4-piperidinyl)-2-methoxybenzamide]	–	–	–	–	5.4	4.5	331
COc1cc(N)c(Cl)cc1C(=O)NC1CCNCC1OC (single isomer, unassigned; (-)) [(−) Norcisapride, 4-amino-5-chloro-N-(3-methoxy-4-piperidinyl)-2-methoxybenzamide]	–	–	–	–	1300	30.4	1350
